# Data published in patent US8048892B2, “Azaquinolone based compounds exhibiting prolyl hydroxylase inhibitory activity, compositions, and uses thereof” (Amgen Inc., priority 2006, dated 2011).
# Biological target: HIF PHD2 (Homo sapiens, UniProt Q9GZT9)
# Assay: PHD2 inhibition assay (TR-FRET, VCB-Eu detection of hydroxylated P564-HIF1α peptide)
# Assay type: biochemical
# Conditions: 2 nM PHD2, 100 nM P564-HIF1α peptide, 0.25 μM 2-oxoglutarate
# Experimental: Inhibition of HIF PHD2 activity was quantified utilizing the TR-FRET technology. HIF PHD2 catalyzes a hydroxyl modification on the proline residue of the P564-HIF1α peptide substrate (Biotin-DLEMLAPYIPMDDDFQL (SEQ ID NO: 7)) resulting in recognition and binding of the europylated Von Hippel-Lindau protein (pVHL), elongin B and elongin C heterotrimeric (VCB-Eu) complex.
# The PHD2 inhibition assay was executed by addition of freshly dissolved FeCl2 to 178.57 μM (100 μM final concentration) in PHD2 Reaction Buffer containing 30 mM MES, pH 6, 10 mM NaCl, 0.25% Brij-35, 0.01% BSA, and 1% DMSO. 28 μL of the iron solution and 2 μL of inhibitor compounds serially diluted in 100% DMSO (5% DMSO final) were added to black polypropylene 96-well microtiter plates. To that, 10 μL of 10 nM PHD2 (2 nM final) was added to all wells of the plate except for the 8 wells of column 12 (LO control), and allowed to incubate at room temperature on the shaker for one hour. Column 6 was the HI control containing PHD2 enzyme and 5% DMSO vehicle, but no inhibitor compound. To initiate the PHD2 enzymatic reaction, 10 μL of a solution containing 500 nM P564-HIF1α peptide (100 nM final), 10 mM ascorbic acid (2 mM final), and 1.25 μM 2-oxoglutarate (α-ketoglutarate; 0.25 μM final) in PHD2 Reaction Buffer was added to all wells of the plate and allowed to incubate on the shaker at room temperature for one hour.
# The reaction was terminated by addition of 25 μL TR-FRET Buffer (50 mM TRIS-HCl, pH 9, 100 mM NaCl, 0.05% BSA, and 0.5% Tween-20) containing 150 mM succinate (product inhibitor; 50 mM final), 75 nM streptavidin-APC (25 nM final), and 7.5 nM VCB-Eu (2.5 nM final). The TR-FRET detection reagents were placed on a shaker for 1 hour to reach binding equilibrium before reading on the Discovery platform (PerkinElmer). Europium is excited at 315 nm and phosphoresces at 615 nm with a large Stoke's shift. APC, in turn, emits at 655 nm upon excitation at 615 nm. The TR-FRET signal is measured as the ratio of the APC 655 nm signal divided by the internal europium reference 615 nm emission signal.
# The POC (percentage of control) was determined by comparing the signal from hydroxylated peptide substrate in the enzyme reaction containing inhibitor compound with that from PHD2 enzyme with DMSO vehicle alone (HI control), and no enzyme (LO control). POC was calculated using the formula: % control (POC)=(cpd−average LO)/(average HI−average LO)*100. Data (consisting of POC and inhibitor concentration in μM) was fitted to a 4-parameter equation (y=A+((B−A)/(1+((x/C)^D))), where A is the minimum y (POC) value, B is the maximum y (POC), C is the x (cpd concentration) at the point of inflection and D is the slope factor) using a Levenburg-Marquardt non-linear regression algorithm.
# HIF PHD2, sequence (Q9GZT9 whole entry): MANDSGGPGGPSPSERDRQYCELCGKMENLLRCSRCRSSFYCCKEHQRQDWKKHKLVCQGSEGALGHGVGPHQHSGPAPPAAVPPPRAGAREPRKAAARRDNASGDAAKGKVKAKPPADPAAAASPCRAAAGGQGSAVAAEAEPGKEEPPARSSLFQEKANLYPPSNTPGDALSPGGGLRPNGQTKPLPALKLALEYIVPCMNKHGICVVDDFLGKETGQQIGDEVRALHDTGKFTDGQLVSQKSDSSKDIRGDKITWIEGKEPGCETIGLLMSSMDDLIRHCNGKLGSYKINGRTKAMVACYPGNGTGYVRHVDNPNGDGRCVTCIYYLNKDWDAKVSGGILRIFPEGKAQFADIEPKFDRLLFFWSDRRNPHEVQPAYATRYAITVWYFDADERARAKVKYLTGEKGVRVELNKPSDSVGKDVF
row,IC50,SMILES
1,< 50 nM,"Cn1c(=O)c(C(=O)NCC(=O)O)c(O)c2cc(-c3cccnc3)cnc21 [Example 44, 2-(4-Hydroxy-1-methyl-2-oxo-6-(pyridin-3-yl)-1,2-dihydro-1,8-naphthyridine-3-carboxamido)acetic acid]"
2,< 50 nM,"Cc1ncccc1-c1cnc2c(c1)c(O)c(C(=O)NCC(=O)O)c(=O)n2C [Example 45, 2-(4-Hydroxy-1-methyl-6-(2-methylpyridin-3-yl)-2-oxo-1,8-naphthyridine-3-carboxamido)acetic acid]"
3,100 to 500 nM,"Cn1c(=O)c(C(=O)NCC(=O)O)c(O)c2cc(-c3ccccc3)cnc21 [Example 46, 2-(4-Hydroxy-1-methyl-2-oxo-6-phenyl-1,2-dihydro-1,8-naphthyridine-3-carboxamido)acetic acid]"
4,< 50 nM,"Cc1nc(F)ccc1-c1cnc2c(c1)c(O)c(C(=O)NCC(=O)O)c(=O)n2C [Example 47, 2-(6-(6-Fluoro-2-methylpyridin-3-yl)-4-hydroxy-1-methyl-2-oxo-1,2-dihydro-1,8-naphthyridine-3-carboxamido)acetic acid]"
5,< 50 nM,"Cc1ccc(-c2cnc3c(c2)c(O)c(C(=O)NCC(=O)O)c(=O)n3C)c(F)n1 [Example 48, N-((6-(2-Fluoro-6-methyl-3-pyridinyl)-4-hydroxy-1-methyl-2-oxo-1,2-dihydro-1,8-naphthyridin-3-yl)carbonyl)glycine]"
6,100 to 500 nM,"CN(C)c1ccc(-c2cnc3c(c2)c(O)c(C(=O)NCC(=O)O)c(=O)n3C)cc1 [Example 49, N-((6-(4-(Dimethylamino)phenyl)-4-hydroxy-1-methyl-2-oxo-1,2-dihydro-1,8-naphthyridin-3-yl)carbonyl)glycine]"
7,< 50 nM,"CN(C)c1cccc(-c2cnc3c(c2)c(O)c(C(=O)NCC(=O)O)c(=O)n3C)c1 [Example 50, N-((6-(3-(Dimethylamino)phenyl)-4-hydroxy-1-methyl-2-oxo-1,2-dihydro-1,8-naphthyridin-3-yl)carbonyl)glycine]"
8,< 50 nM,"Cn1c(=O)c(C(=O)NCC(=O)O)c(O)c2cc(-c3ccc(F)nc3)cnc21 [Example 51, N-((6-(6-Fluoro-3-pyridinyl)-4-hydroxy-1-methyl-2-oxo-1,2-dihydro-1,8-naphthyridin-3-yl)carbonyl)glycine]"
9,100 to 500 nM,"COc1ccc(-c2cnc3c(c2)c(O)c(C(=O)NCC(=O)O)c(=O)n3C)cn1 [Example 52, N-((4-Hydroxy-1-methyl-6-(6-(methyloxy)-3-pyridinyl)-2-oxo-1,2-dihydro-1,8-naphthyridin-3-yl)carbonyl)glycine]"
10,< 50 nM,"COc1ncccc1-c1cnc2c(c1)c(O)c(C(=O)NCC(=O)O)c(=O)n2C [Example 53, N-((4-Hydroxy-1-methyl-6-(2-(methyloxy)-3-pyridinyl)-2-oxo-1,2-dihydro-1,8-naphthyridin-3-yl)carbonyl)glycine]"
11,50 to 100 nM,Cn1c(=O)c(C(=O)NCC(=O)O)c(O)c2cc(-c3cccc(N4CCOCC4)c3)cnc21 [Example 54]
12,50 to 100 nM,"COc1cncc(-c2cnc3c(c2)c(O)c(C(=O)NCC(=O)O)c(=O)n3C)c1 [Example 55, N-((4-Hydroxy-1-methyl-6-(5-(methyloxy)-3-pyridinyl)-2-oxo-1,2-dihydro-1,8-naphthyridin-3-yl)carbonyl)glycine]"
13,50 to 100 nM,"CN1CCOc2cc(-c3cnc4c(c3)c(O)c(C(=O)NCC(=O)O)c(=O)n4C)ccc21 [Example 56, N-((4-Hydroxy-1-methyl-6-(4-methyl-3,4-dihydro-2H-1,4-benzoxazin-7-yl)-2-oxo-1,2-dihydro-1,8-naphthyridin-3-yl)carbonyl)glycine]"
14,< 50 nM,"Cn1c(=O)c(C(=O)NCC(=O)O)c(O)c2cc(-c3ccccc3N3CCOCC3)cnc21 [Example 57, N-((4-Hydroxy-1-methyl-6-(2-(4-morpholinyl)phenyl)-2-oxo-1,2-dihydro-1,8-naphthyridin-3-yl)carbonyl)glycine]"
15,50 to 100 nM,"Cn1c(=O)c(C(=O)NCC(=O)O)c(O)c2cc(-c3ccccc3N3CCCCC3)cnc21 [Example 58, N-((4-Hydroxy-1-methyl-2-oxo-6-(2-(1-piperidinyl)phenyl)-1,2-dihydro-1,8-naphthyridin-3-yl)carbonyl)glycine]"
16,50 to 100 nM,"Cn1c(=O)c(C(=O)NCC(=O)O)c(O)c2cc(-c3cccc(N4CCCCC4)c3)cnc21 [Example 59, N-((4-Hydroxy-1-methyl-2-oxo-6-(3-(1-piperidinyl)phenyl)-1,2-dihydro-1,8-naphthyridin-3-yl)carbonyl)glycine]"
17,100 to 500 nM,"Cn1c(=O)c(C(=O)NCC(=O)O)c(O)c2cc(-c3cccc(N4CCCC4)c3)cnc21 [Example 60, N-((4-Hydroxy-1-methyl-2-oxo-6-(3-(1-pyrrolidinyl)phenyl)-1,2-dihydro-1,8-naphthyridin-3-yl)carbonyl)glycine]"
18,< 50 nM,"Cn1c(=O)c(C(=O)NCC(=O)O)c(O)c2cc(-c3cncnc3)cnc21 [Example 61, N-((4-Hydroxy-1-methyl-2-oxo-6-(5-pyrimidinyl)-1,2-dihydro-1,8-naphthyridin-3-yl)carbonyl)glycine]"
19,< 50 nM,"CN(C)c1ccc(-c2cnc3c(c2)c(O)c(C(=O)NCC(=O)O)c(=O)n3C)cn1 [Example 62, N-((6-(6-(Dimethylamino)-3-pyridinyl)-4-hydroxy-1-methyl-2-oxo-1,2-dihydro-1,8-naphthyridin-3-yl)carbonyl)glycine]"
20,< 50 nM,"Cn1c(=O)c(C(=O)NCC(=O)O)c(O)c2cc(-c3ccc(N4CCOCC4)cc3)cnc21 [Example 63, N-((4-Hydroxy-1-methyl-6-(4-(4-morpholinyl)phenyl)-2-oxo-1,2-dihydro-1,8-naphthyridin-3-yl)carbonyl)glycine]"
21,50 to 100 nM,"COc1ncc(-c2cnc3c(c2)c(O)c(C(=O)NCC(=O)O)c(=O)n3C)cn1 [Example 64, 2-(4-Hydroxy-6-(2-methoxypyrimidin-5-yl)-1-methyl-2-oxo-1,2-dihydro-1,8-naphthyridine-3-carboxamido)acetic acid]"
22,< 50 nM,"Cn1c(=O)c(C(=O)NCC(=O)O)c(O)c2cc(-c3ccnc(F)c3)cnc21 [Example 65, 2-(6-(2-Fluoropyridin-4-yl)-4-hydroxy-1-methyl-2-oxo-1,2-dihydro-1,8-naphthyridine-3-carboxamido)acetic acid]"
23,< 50 nM,"Cn1c(=O)c(C(=O)NCC(=O)O)c(O)c2cc(C3CCCCC3)cnc21 [Example 66, 2-(6-Cyclohexyl-4-hydroxy-1-methyl-2-oxo-1,2-dihydro-1,8-naphthyridine-3-carboxamido)acetic acid]"
24,< 50 nM,"Cn1c(=O)c(C(=O)NCC(=O)O)c(O)c2cc(C3=CCCCC3)cnc21 [Example 67, 2-(6-Cyclohexenyl-4-hydroxy-1-methyl-2-oxo-1,2-dihydro-1,8-naphthyridine-3-carboxamido)acetic acid]"
25,50 to 100 nM,"Cn1c(=O)c(C(=O)NCC(=O)O)c(O)c2cc(C3CCCO3)cnc21 (centres unmarked) [Example 71, 2-(4-Hydroxy-1-methyl-2-oxo-6-(tetrahydrofuran-2-yl)-1,2-dihydro-1,8-naphthyridine-3-carboxamido)acetic acid]"
26,50 to 100 nM,"CCCCc1cnc2c(c1)c(O)c(C(=O)NCC(=O)O)c(=O)n2C [Example 72, 2-(6-Butyl-4-hydroxy-1-methyl-2-oxo-1,2-dihydro-1,8-naphthyridine-3-carboxamido)acetic acid]"
27,< 50 nM,"C[C@H](NC(=O)c1c(O)c2cc(I)cnc2n(C)c1=O)C(=O)O [Example 73, (S)-2-(4-Hydroxy-6-iodo-1-methyl-2-oxo-1,2-dihydro-1,8-naphthyridine-3-carboxamido)propanoic acid]"
28,100 to 500 nM,"C[C@H](NC(=O)c1c(O)c2cc(-c3ccccc3)cnc2n(C)c1=O)C(=O)O [Example 74, (S)-2-(4-Hydroxy-1-methyl-2-oxo-6-phenyl-1,2-dihydro-1,8-naphthyridine-3-carboxamido)propanoic acid]"
29,< 50 nM,"Cn1c(=O)c(C(=O)NCC(=O)O)c(O)c2cc(I)cnc21 [Example 75, 2-(4-Hydroxy-6-iodo-1-methyl-2-oxo-1,2-dihydro-1,8-naphthyridine-3-carboxamido)acetic acid]"
